# From patent US7517654B2, “Peptide and a derivative thereof promoting cell adhesion and spreading” (Seoul National University Industry Foundation, priority 2004, dated 2009)
# Tests used:
# Type in all cases: cell-based, human
# HOK-16B cells [1] = test: Cell adhesion assay on coated plates (crystal violet absorbance at 570 nm / cell counting); conditions: HOK-16B cells, 10 μg/well truncated or Ala-substituted peptide coating, 1 h
# Description: The cell adhesion assay was performed according to a method reported by Okazaki et al. (J. Biol. Chem., 277:37070, 2002). In detail, 24-well culture plates (Nunc, Roskilde, Denmark) were coated with various amounts of rLG proteins at 4° C. overnight. The peptides were also coated on plates by drying overnight. The substrate-coated on the plates were blocked by adding 1% heat-inactivated bovine serum albumin (BSA) in PBS for 1 h at 37° C. and washed twice with PBS. The cells in the Experimental Example 1, detached by 0.05% tyrpsin and 0.53 mM EDTA in PBS and resuspended in culture media, were added (1×10^5 cells/500 μl) to each plate and incubated for 1 h at 37° C. After incubation, unattached cells were removed by rinsing twice with PBS. The attached cells were fixed with 10% formalin in PBS for 15 min, rinsed twice with PBS, and stained with 0.5% crystal violet for 1 h. The plates were gently rinsed with DDW three times and lysed with 2% SDS for 5 min. Absorbance was measured at 570 nm in a Bio-Rad Model 550 microplate reader (BioRad).
# The cell adhesion and spreading activities on peptide-coated plates were examined using HOK-16B cells by the same method as Experimental Example 2. 24-well plates were coated with 10, 20, 30, 40 and 50 μg/well peptides P1 to P5, respectively. HOK-16B cells were added to peptide-coated plates and cultured for 1 h in serum-free medium for 1 hr. After the unbound cells were washed off, adherent cells were fixed and stained with crystal violet, and then the stained cells were analyzed. Absorbance was measured at 570 nm in a microplate reader. BSA and the rLG3 were used as negative control and positive control, respectively.
# It was observed that peptide P4 promotes strong cell adhesion and spreading activities and binds to integrin α3β1 in the Example 4. Therefore, to determine the biologically active core sequences in peptide P4, five synthetic peptides (P4 D-I to P4 D-V), which are C-terminal truncated peptides from the peptide P4, and six synthetic peptides (P4 D-N1 to P4 D-N6), which are N-terminal truncated peptides from the peptide P4 were prepared (FIG. 6A) and examined for HOK-16B cell adhesion and spreading activities on peptide-coated plates by the present inventors. 24-well plates were coated with 10 μg/well C-terminal truncated peptides or N-terminal truncated peptides, and HOK-16B cells were added to the plates, and then cultured in serum-free medium for 1 hr. After the unbound cells were washed off, the adherent cells were fixed to stain with crystal violet, and the stained cells were analyzed. Absorbance was measured at 570 nm in a microplate reader. Peptide P4 and BSA were used as the positive and negative controls, respectively.
# 24-well plates were coated with 10 μg/well peptides, and HOK-16B cells were added to the plates, and then cultured in serum-free medium for 1 hr. After the unbound cells were washed off, the adherent cells were fixed to stain with crystal violet, and the stained cells were analyzed. Peptide P4 and BSA were used as the positive and negative controls, respectively. The results were expressed as mean ±SD of the four independent experiments.
# HOK-16B cells [2] = test: Cell spreading activity assay on coated plates; conditions: HOK-16B cells, 10 μg/well truncated or Ala-substituted peptide coating, 1 h
# Description: To identify spreading cells, attached cells were fixed with 10% formalin in PBS for 15 min, rinsed twice with PBS, and stained with 0.005% crystal violet for 1 h. The plates were then gently rinsed with DDW. To ensure a representative count, each plate was divided into quarters, two fields per quarter were photographed using an Olympus BX51 microscope at 100× magnification. Cells that had adopted a flattened, polygonal shape, with filopodia-and lamellipodia-like extensions were considered to be spreading cells. In contrast, cells that resisted being washed and remained tethered to the plate surface were considered to be non-spreading cells.
# To examine the adhesion activity of peptide P4 in detail, the inventors examined whether the adherent cells were tethered to the substratum or spread over the substratum. The BSA and rLG3 were used as the negative control and positive control, respectively, the percentage of cells displaying a spreading morphology was quantified by dividing the number of spreading cells by the total number of bound cells.
# FAK = FAK phosphorylation assay (immunoblot, p-FAK/t-FAK); conditions: for FAK phosphorylation level at Tyr-397: peptides 50 μg/60-mm dish
# Description: The FAK phosphorylation assays were performed according to a method of Shang et al. (J. Biol. Chem., 276:33045, 2001). In detail, the HOK-16B cells were trypsinized, washed, and kept in suspension in serum-free KGM with 0.1% BSA for 1 h at 37° C. The 60-mm culture dishes were coated with laminin (5 μg/ml) or rLG3 protein (25 μg/ml) at 4° C. overnight. Peptides (50 μg/60-mm culture dish) were also coated on dishes by drying overnight. For the adherent FAK assay, 1×10^6 cells were plated onto uncoated, laminin-coated, rLG3 protein-coated, or various peptide-coated dishes and allowed to attach for 15, 30, or 60 min at 37° C. in an atmosphere of 5% CO2. At the end of the incubation, cells were washed with ice-cold PBS and lysed in RIPA buffer (50 mM Tris [pH 7.4], 150 mM NaCl, 1% Nonidet P-40, 0.5% Na-deoxycholate, 1 mM EDTA, 0.1% SDS, 2 mM Na3VO4, 1 mM glycerol phosphate, 1 mM PMSF, and protease inhibitor cocktail). Lysates were clarified by centrifugation at 12,000×g for 10 min at 4° C. to isolate cytosolic extracts.
# The cytosolic extracts were denatured using SDS sample buffer [50 mM Tris-HCl (pH 6.8), 2% SDS, 10% glycerol, 0.1% bromophenol blue, 100 mM β-mercaptoethanol] and separated on an 8% SDS-polyacrylamide gel. Electrophoretic transfer of SDS-PAGE gel separated with protein to a nitrocellulose membrane was followed by immnoblotting with polyclonal anti-FAK antibodies to determine the total FAK level or immnoblotting with polyclonal anti-FAK [pY^397], [pY^407], [pY^576], [pY^577] or [pY^861] antibodies to determine the extent of tyrosine phosphorylation. The relative fold induction of FAK phosphorylation, defined as an increase in FAK phosphorylation of a sample relative to its corresponding background level (i.e., cells plated on plastic) was determined as follows: First, the densitomerty intensity of the phosphorylated FAK (p-FAK) and the total FAK (t-FAK) signals from the Western blots were measured with a LAS-1000plus (Fuji photo film, Japan). The ratio of p-FAK to t-FAK (p-FAK/t-FAK) for each sample was then calculated to correct for differences in protein loading. This ratio was normalized to the p-FAK/t-FAK ratio of the negative controls to obtain the relative fold induction of FAK phosphorylation.
# HOK-16B cells isolated by trypsinization were suspended for 1 hr, and kept in suspension (Sus), or replated on 60-mm culture dishes coated with or without laminin (5 μg/ml). The cells were kept for 15, 30, or 60 min for being attached on plates, then cell lysates were analyzed by immunoblot analysis with anti-FAK p-Y397 antibody (Biosource, Camariollo, Calif.). […] This effect was observed within 15 min and peaked at 15 min after exposure to the laminin-coated plate (FIG. 8A).
# Therefore, the extent of FAK phosphorylation at Tyr-397,-407,-576, -577, and -861 was investigated in HOK-16B cells cultured on plates coated with laminin (5 μg/ml), rLG3 (25 μg/ml), or peptides P1-P5 (50 μg/60-mm dish) for 15 min. The lysates were immnoblotted with polyclonal anti-FAK, p-Y397, p-Y407, p-Y576, p-Y577 or p-Y861 antibodies (Biosoucce, Camariollo, Calif.), and the total FAK level was detected using anti-FAK antibodies (Upstate Biotechnology, Lake Placid, N.Y. The ratio of p-FAK to t-FAK (p-FAK/t-FAK) for each sample was then calculated to correct for differences in protein loading. This ratio was normalized to the p-FAK/t-FAK ratio of the negative controls (cells on plates) to obtain the relative fold induction of FAK phosphorylation. As a result, the extent of FAK phosphorylation at Tyr-397 cultured on the laminin-coated or rLG3 protein-coated plates increased 16.2- and 8.2-fold compared with the untreated control (FIG. 8B).
# [3] = HOK-16B cells on coated dishes, laminin 5 μg/ml
Substance,cell adhesion activity compared to the peptide P4 control (HOK-16B cells [1]),cell spreading activity compared to the peptide P4 control (HOK-16B cells [2]),FAK phosphorylation level at Tyr-397 (FAK; [3]),"changes of the FAK phosphorylation levels at Tyr-407, -576 and -861 (FAK; HOK-16B cells on coated dishes, 15 min)","increase of FAK phosphorylation at Tyr-397 compared with the untreated control (FAK; HOK-16B cells, 15 min, laminin 5 μg/ml or rLG3 25 μg/ml coating, p-FAK/t-FAK normalized) [fold]","time of peak FAK phosphorylation at Tyr-397 after exposure to coated plate (FAK; laminin 5 μg/ml, 15, 30 or 60 min tested) [min]"
P4-S2: peptide P4 in which Ala substituted for Arg (PPFLMLLKGSTA),significantly inhibited,significantly inhibited,significantly decreased,,,
P4-S3: peptide P4 in which Ala substituted for both Lys and Arg (PPFLMLLAGSTA),significantly inhibited,significantly inhibited,significantly decreased,,,
laminin [reference compound],,,notably higher,not observed,16.2,15
